Test system: mice fed a high fat diet
Experiment: motor (exploratory) activity in activity monitoring chamber, Opto-Varimex 4
Format: in vivo
Conditions: high fat diet plus Ca-HMB (170 or 340 mg/kg of drinking water) compared to high fat diet alone; 30 minutes observation
Procedure: The mice arrived at the facility at 21 days post birth and were divided into 6 groups after a seven day quarantine. There were 5 animals each. […] were placed on the following diets:
Group 1: High Fat Diet alone;
Group 2: High Fat Diet plus 500 mg of leucine/kg of drinking water;
Group 3: High Fat Diet plus 1000 mg of leucine/kg of drinking water;
Group 4: High Fat Diet plus 170 mg of Ca-HMB/kg of drinking water;
Group 5: High Fat Diet plus 340 mg of Ca-HMB/kg of drinking water; and
One week before the initiation of the study, the animals were acclimatized in the activity monitoring chamber, daily for half an hour. On the day of experiment, each set of animals were placed in the activity monitoring chamber (chamber 1 to 5) for half an hour. Motor activity of the mice in each group was monitored using the Actometry Apparatus: “Opto-Varimex 4” Auto-track system, Model No: 0271-004M. The motor activity of each mouse was monitored once in a week between 8:30 AM and 12:00 PM for 30 minutes. Six sets of “half an hour observations” were made for each of the 30 animals. The software captured motor activity parameters while the animals were in the activity monitoring chamber.

CC(C)(O)CC(=O)O [HMB, beta-hydroxy-beta-methylbutyric acid]
exploratory activity: enhanced exploratory activity

Source: US20150238447A1, “BETA-HYDROXY-BETA-METHYLBUTRYIC ACID-CONTAINING COMPOSITIONS AND USES THEREOF” (ABBOTT LABORATORIES, priority 2012, published 2015)
